The record followed here is patent US4959370A, “Alkaloids of marine origin” (priority 1989, dated 1990).

The structures appear in SMILES notation. Read-outs that look alike come from different tables or passages of the source.

Experiment [1] concerns fourth larval stage of N. brasiliensis. Description: In vitro anthelmintic activity against fourth larval stage (L4). In kind it is cell-based, Nippostrongylus brasiliensis. As to conditions: 50 μg/ml, 37° C., seven days; for inhibition at 50 µg/mL: Nippostrongylus brasiliensis, 168 h. The procedure:
To obtain the fourth larval stage (L4) of Nippostrongylus brasiliensis, rats were inoculated with 6,500 to 6,750 N. brsiliensis third stage larvae subcutaneously. Seventy-two hours later the rats were sacrificed and the fourth stage larvae harvested. Compounds of Formula (I) were tested at 50 μg/mL against the fourth larval stage of N. brasiliensis at approximately 50 L4/well. This mixture was incubated at 37° C. for a total of seven days and then read for activity. Parameters used to determine drug activity were motility, viability, and the ability of fourth stage larvae to molt to the adult, i.e., cast formation. A compound was defined as active if (1) cast formation was reduced by 40 percent or more; or (2) viability and motility together were reduced 40 percent or more. | Compound B is a compound of Formula (I) where R is methyl. *Percent cast | reduction was determined by the following: | **Percent viability reduction was determined by the | following: | ***Percent motility reduction was a subjective evaluation

Experiment [2] concerns the target T1, purified cloned reverse transcriptase (RT) (HIV-1 M:B_HXB2R, UniProt P04585).
T1 construct: mature chain of Gag-Pol polyprotein
Description: In vitro reverse transcriptase inhibitory activity. The format is biochemical. As to conditions: 400 μg/ml in 10 percent DMSO; 37° C., 0, 15, and 30 minutes; decrease in [3H] TTP incorporation vs controls. The procedure: The activity of purified cloned reverse transcriptase (RT), in the presence or absence of test compound, was assayed by measuring the incorporation of tritiated thymidine triphosphate ([^3 H] TTP) into a DNA chain using polyadenosine as the template and oligodeoxythymidine as the primer (Biochem. Pharm. 1987, Vol. 36, No. 24 pp. 4361-4362). The final concentration of the compounds tested for anti-RT activity was 400 μg/ml in 10 percent DMSO. Controls contained 10 percent DMSO only. After incubation at 37° C. for 0, 15, and 30 minutes, an aliquot of the incubation mixture was spotted on cellulose paper, washed in TCA-pyrophosphate solution to remove [^3 H] TTP, dried and analyzed for the rate of incorporation of radioactivity. The compounds which inhibited more than 50 percent of the enzyme activity, as determined by a decrease in radioactivity compared with controls, were considered active.

The mark [3] stands for this setting: cast formation (molt to adult), read-out: PERCENT REDUCTION COMPARED TO CONTROL: Casts.
Setting [4] is: subjective evaluation, read-out: PERCENT REDUCTION COMPARED TO CONTROL: Motility.

Turning to `CN(C)c1c2c(c3nc4ccccc4c4c3c1N=C4)NCCC2=O` [Compound B, plakinidine B], in experiment [1], the “PERCENT REDUCTION COMPARED TO CONTROL: Viability” value was found to be 100%. Also, the inhibition at 50 µg/mL in experiment [1] (setting [3]) and in experiment [1] (setting [4]) was 100% in each case.

In the case of `CNc1c2c(c3nc4ccccc4c4c3c1N=C4)NCCC2=O` [Compound A, plakinidine A], the “PERCENT REDUCTION COMPARED TO CONTROL: Viability” value in experiment [1] turned out to be 100%. In addition, the inhibition at 50 µg/mL in experiment [1] (setting [3]) and in experiment [1] (setting [4]) was 100% throughout. The same compound registered an inhibition at 400 µg/mL in experiment [2] of 83%.
